Measurements published in patent US8987320B2, “Solid salt forms of a pyrrole substituted 2-indolinone” (Zoetis LLC, priority 2005, dated 2015).
Converted amounts (≈) assume the structure as drawn.

Tests used:
[1] = Estimation of solubility in various solvents by step-wise solvent addition; assay type: physicochemical; conditions: 23 °C, organic solvent or mixture, thermodynamic from solid, 23° C., read-out: Estimated solubility
Procedure: Samples of 1-2 mg of Compound I phosphate (lot 35282-CS-51) were transferred to 10 mL glass vials (tared) and were weighed (accurate to 0.1 mg). Solvents were added to the vials (one solvent to each vial) in a step-wise fashion, with 0.5 mL of solvent added at each step. Solvents used were buffer (pH=2), buffer (pH=5), water, methanol, tetrahydrofuran (THF), acetonitrile, and acetone. After each addition, the vial was capped and shaken. The dissolution of solid was visually observed. If no obvious dissolution was observed, more solvent was added immediately. If dissolution was apparent, the vial was left on the bench for at least 30 minutes before the next addition of solvent. This step was repeated until no crystals were visible against a black and a white background. The solubility was then bracketed by dividing the weight of the compound by the final volume and the volume before the last addition. If a solid remained after the addition of 10 mL of solvent, the solubility was expressed as less than the weight divided by the final volume. If the solid was completely dissolved after the first addition of solvent, the solubility was expressed as greater than the weight divided by the solvent volume. All experiments were conducted at room temperature.

[2] = Dynamic moisture sorption gravimetry (DMSG) of salts of Compound I; assay type: physicochemical
Procedure: Dynamic Moisture Sorption Gravimetry (DMSG).
DMSG isotherm was collected on a temperature controlled atmospheric microbalance. Approximately 10 mg samples were placed in the sample pan of the balance. The humidity was sequentially varied from room relative humidity (RH) to 0% RH and was then increased to 90% RH followed by a decrease of RH to 0% again in 3% RH steps. The mass was then measured every two minutes. The RH was stepped to the next target value when change of the sample mass was less than 0.5 μg in 10 min. The Visual Basic program dmsgscn2.exe was used to control the data collection and export the information to an Excel spreadsheet.

[3] = Solubility of Compound I in pH 6 phosphate buffer; assay type: physicochemical; conditions: aqueous buffer; pH 6 phosphate buffer at 25° C.
Procedure: Compound I readily crystallizes. Its solubility is about 10 μg/mL in pH 6 phosphate buffer at 25° C. When the compound was synthesized, very fine particles precipitated out of solution during the last step of synthesis. Subsequent isolation of these fine particles by filtration was slow, and a hard cake resulted after filtration. There is a need for a salt of Compound I which has physical stability and desirable physical properties.

[4] = set-up: species or system rodent; conditions: in vivo
Procedure: Based on preclinical work in rodent models, the therapeutic range of Compound I for target inhibition was considered to be 50-100 ng/ml for 12 h of a 24-h dosing period. […] In one animal, the plasma concentration of Compound I phosphate was outside the range of the other samples (0.3 ng/ml).

[5] = tested on: canine MCTs; conditions: dog, in vivo; cited from earlier work
[6] = tested on: KIT; conditions: in vitro, cited from earlier work
[7] = Relative physical stability of Compound I phosphate polymorphs standing in solvent; assay type: physicochemical; conditions: among non-solvated polymorphs, in contact with solvent
Procedure: Such concentrated solutions were prepared by dissolving Compound I free base in about 1 M phosphoric acid. For example, about 70 mg of Compound I free base could be dissolved in 1 mL of 1 M phosphoric acid. However, the amount of Compound I free base and phosphoric acid used depended on the desired concentration and batch size of the solution. In the example in which the precipitate was vacuum filtered immediately after precipitation, about 1 mL of the desired solution was then dripped into about 10 mL of ten anti-solvents to precipitate the salt crystals out. These solvents were water plus acetonitrile (ANC), ethanol, methanol, acetone, acetonitrile, THF, ethyl acetate, hexane, methylene chloride (CH2Cl2), and isopropyl alcohol (IPA). In the example in which the precipitate was vacuum filtered after standing overnight or for three days, the additional solvents of methyl ethyl ketone (MEK) and dioxane were used. Some organic solvents, e.g., ethyl acetate, hexane, CH2C12, are not miscible with water and two layers of solvents were observed. […] In those cases, about 1 mL of methanol was added as a bridging solvent, to increase the miscibility between the two layers. Methanol appeared to work well to increase the miscibility because colorless organic layer became yellow as soon as methanol was added. […] The powder was then analyzed. […]

SMILES: Cc1[nH]c(/C=C2\C(=O)Nc3ccc(F)cc32)c(C)c1C(=O)NCCN1CCCC1 [Compound I free base (polymorph Form A), 5-[5-fluoro-2-oxo-1,2-dihydro-indol-(3Z)-ylidenemethyl]-2,4-dimethyl-1H-pyrrole-3-carboxylic acid (2-pyrrolidin-1-yl-ethyl)-amide]
- solubility ([1]; acetone, Acetone): < 160 µg/mL
- solubility ([1]; acetonitrile, Acetonitrile): < 80 µg/mL
- solubility ([1]; methanol, methanol): 210 to 310 µg/mL (≈ 530 to 782 µM)
- solubility ([1]; tetrahydrofuran (THF), THF): 320 to 400 µg/mL (≈ 807 to 1010 µM)

SMILES: Cc1[nH]c(/C=C2\C(=O)Nc3ccc(F)cc32)c(C)c1C(=O)NCCN1CCCC1.O=C(O)CC(O)(CC(=O)O)C(=O)O [Compound I citrate]
- % water at 80% RH [2]: ~3.8%
- water at 80 percent humidity ([2]; 80 percent relative humidity): about 3.8%

SMILES: Cc1[nH]c(/C=C2\C(=O)Nc3ccc(F)cc32)c(C)c1C(=O)NCCN1CCCC1 [Compound I, 5-[5-fluoro-2-oxo-1,2-dihydro-indol-(3Z)-ylidenemethyl]-2,4-dimethyl-1H-pyrrole-3-carboxylic acid (2-pyrrolidin-1-yl-ethyl)-amide]
- solubility [3]: ~10 µg/mL (≈ 25.2 µM)
- % water at 80% RH [2]: ~1%
- therapeutic range for target inhibition (plasma) [4]: 50 to 100 ng/mL
- canine MCTs with durable objective responses (partial and complete responses) [5]: 11 of 22 canine MCTs
- potency of blocking phosphorylation of wild-type vs ITD mutant KIT ([6]; cellular assays): comparable potency
- effect on malignant mast cell lines expressing various forms of mutant KIT [6]: inhibit KIT phosphorylation, arrest cell proliferation, and induce cell cycle arrest and apoptosis

SMILES: Cc1[nH]c(/C=C2\C(=O)Nc3ccc(F)cc32)c(C)c1C(=O)NCCN1CCCC1 [Form I]
- relative stability of the solid phase [7]: most stable solid phase
